From patent publication US5387602A, “1.5-diphenyl-3-(N-hydroxycarbamoyloxyalkyl)pyrazoles” (Ortho Pharmaceutical Corporation, priority 1993, dated 1995)

Key:
[1] = target: T1, 5-LO in intact RBL-1 cells (Rattus norvegicus, UniProt P12527); experiment: Procedure III: inhibition of 5-LO in intact RBL-1 cells; assay type: cell-based
T1 construct: 5-LO and CO in intact RBL-1 cells; endogenous in cells; host or cells: RBL-1 (rat basophilic leukemia cells), intact
T1 sequence (P12527 1-673): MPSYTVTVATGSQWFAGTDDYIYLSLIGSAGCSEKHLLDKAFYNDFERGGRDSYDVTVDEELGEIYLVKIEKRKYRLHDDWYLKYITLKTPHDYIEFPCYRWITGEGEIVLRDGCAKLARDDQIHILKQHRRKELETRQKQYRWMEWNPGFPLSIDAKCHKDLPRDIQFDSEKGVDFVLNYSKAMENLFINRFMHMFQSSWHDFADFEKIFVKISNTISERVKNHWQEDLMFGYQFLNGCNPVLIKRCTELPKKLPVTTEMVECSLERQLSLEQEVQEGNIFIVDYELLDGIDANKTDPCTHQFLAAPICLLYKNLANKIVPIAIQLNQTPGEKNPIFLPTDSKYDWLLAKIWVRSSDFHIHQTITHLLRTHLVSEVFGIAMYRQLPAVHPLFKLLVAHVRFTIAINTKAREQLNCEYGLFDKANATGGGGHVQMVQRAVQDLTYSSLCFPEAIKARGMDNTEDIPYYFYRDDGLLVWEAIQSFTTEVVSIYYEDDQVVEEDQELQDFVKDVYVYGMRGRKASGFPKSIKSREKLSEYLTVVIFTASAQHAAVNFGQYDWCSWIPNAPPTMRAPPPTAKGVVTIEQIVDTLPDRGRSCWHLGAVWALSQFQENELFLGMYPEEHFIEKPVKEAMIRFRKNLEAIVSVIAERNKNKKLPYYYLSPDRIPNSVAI
Experimental: The ability to inhibit 5-LO and CO in intact RBL-1 cells was also evaluated. RBL-1 cells were maintained in culture in minimal essential medium (Bio*Whittaker, Walkersville, Md.), containing 12.5% fetal calf serum, 10 mg/mL streptomycin, 10 I.U./mL penicillin G, […] gentamycin and 2 mM L-glutamine (Bio*Whittaker, Walkersville, Md.). Cells were collected by centrifugation, washed once in HBSS, and resuspended at a concentration of 1×10^5 cells/mL. Cells were incubated in the presence of vehicle or drug then centrifuged at 800×g for 10 minutes at 4° C. The supernatant was removed by aspiration and the cells were resuspended in 0.5 mL of HBSS. The reaction was started by the addition of 20 μg/mL of calcium ionophore A-23187 (mixed calcium and magnesium salts, Calbiochem, La Jolla, Calif.) and allowed to proceed for 15 minutes, then stopped by plunging the tubes into a slush ice bath. The conversion of AA to 5-LO products was initiated by the addition of 10 μL (50 uCi) of 1-^14 C-AA. Products were isolated by acidification and extraction, followed by thin layer chromatography analysis as described above. Radioactive areas corresponding to authentic 5-LO and CO products were quantitated by the Bioscan 2000 Imaging System.
(§1) In the following tables, the superscripts indicate the number of experiments and, unless otherwise stated, the dose at which % inhibition is reported is 3 MPK.

[2] = target: T2, RBL-1 Cell Cyclooxygenase (Rattus norvegicus, UniProt Q63921); experiment: Procedure II: cyclooxygenase inhibition in disrupted RBL-1 cells (supernatant as enzyme source); assay type: biochemical; conditions: for IC50: read-out: IC50 CO (Procedure II)
T2 construct: the supernatant was saved as the source of enzymes; endogenous in cells; host or cells: RBL-1 (rat basophilic leukemia cells), 10,000×g supernatant of homogenate
T2 sequence (Q63921 27-602): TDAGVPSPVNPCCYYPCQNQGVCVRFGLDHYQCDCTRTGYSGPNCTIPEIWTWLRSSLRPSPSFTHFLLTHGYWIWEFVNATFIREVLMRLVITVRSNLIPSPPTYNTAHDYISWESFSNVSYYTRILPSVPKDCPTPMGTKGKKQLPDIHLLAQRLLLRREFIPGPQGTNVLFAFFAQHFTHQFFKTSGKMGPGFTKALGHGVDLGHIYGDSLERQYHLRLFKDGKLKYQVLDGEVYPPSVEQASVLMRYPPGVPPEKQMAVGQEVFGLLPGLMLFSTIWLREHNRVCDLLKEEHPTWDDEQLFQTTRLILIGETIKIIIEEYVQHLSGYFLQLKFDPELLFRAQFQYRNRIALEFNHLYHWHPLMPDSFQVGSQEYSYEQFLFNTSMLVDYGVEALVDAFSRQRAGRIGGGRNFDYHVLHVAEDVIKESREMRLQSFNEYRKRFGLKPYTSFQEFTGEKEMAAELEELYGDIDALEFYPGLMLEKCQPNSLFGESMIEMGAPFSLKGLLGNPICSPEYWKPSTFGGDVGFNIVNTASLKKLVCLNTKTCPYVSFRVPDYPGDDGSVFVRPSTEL
Experimental: RBL-1 Cell 5-Lipoxygenase and Cyclooxygenase
Rat basophilic leukemia cells (RBL-1; 5×10^7 viable cells/mL) were disrupted by homogenization on ice (four 20 sec bursts) with a Brinkman polytron. Complete cell breakage was verified microscopically. The homogenate was then centrifuged at 10,000×g for 48 minutes at 4° C. The pellet was discarded and the supernatant was saved as the source of enzymes. The supernatant was pre-incubated for five minutes at 37° C. in the presence of 2 mM of CaCl2 and compound or vehicle (1% DMSO). The conversion of AA into 5-LO products was initiated by adding 10 μL (50 μCi) of 1-^14 C-AA to each tube and incubated at 37° C. for 20 minutes. The reaction was stopped by adjusting the pH of each sample to 3 to 3.5 with 2M formic acid. Samples were extracted with three volumes of chloroform to isolate the products of 5-LO formed during the reaction. Fractions were dried under nitrogen, then resuspended in 40 μL of chloroform and spotted onto silica gel HL plates. The plates were developed in A-9 solvent. The dried plates were analyzed using a Bioscan Imaging TLC scanner to determine the percentage of radiolabelled AA converted to 5-HETE in each sample.
as §1

| Structure (SMILES) | IC50 [1] [nM] | % INHIBITION CO (Procedure II) [2] [%] | IC50 [2] [nM] |
| --- | --- | --- | --- |
| COc1ccc(-n2nc(COC(=O)NO)cc2-c2ccc(Cl)cc2)cc1 [1-A] | 24200 | 34 | 180 |
| COc1ccc(-n2nc(COC(=O)N(C)O)cc2-c2ccc(Cl)cc2)cc1 [1-B] | 6100 | 52 | 1400 |
| COc1ccc(-n2nc(COC(=O)N(O)C(C)C)cc2-c2ccc(Cl)cc2)cc1 [1-C] | 10600 | 80 | 1100 |
| COc1ccc(-n2nc(COC(=O)NO)c(Br)c2-c2ccc(Cl)cc2)cc1 [1-D] | 25900 | 36 | 300 |
| COc1ccc(-n2nc(COC(=O)N(O)C(C)C)c(Br)c2-c2ccc(Cl)cc2)cc1 [1-F] | 3600 | 0 | 880 |
| COc1ccc(-n2nc(COC(=O)NO)c(Cl)c2-c2ccc(Cl)cc2)cc1 [1-G] | 15900 | 18 | 950 |
| COc1ccc(-n2nc(COC(=O)N(C)O)c(Cl)c2-c2ccc(Cl)cc2)cc1 [1-H] | 2000 | 41 | 220 |
| COc1ccc(-n2nc(COC(=O)N(O)C(C)C)c(Cl)c2-c2ccc(Cl)cc2)cc1 [1-I] | 2350 | 3 | 1630 |
| COc1ccc(-n2nc(COC(=O)NO)cc2-c2ccc(C)cc2)cc1 [1-J] | 26000 | 87 | 180 |
| COc1ccc(-n2nc(COC(=O)N(C)O)cc2-c2ccc(C)cc2)cc1 [1-K] | 3600 | 100 | 150 |
| COc1ccc(-n2nc(COC(=O)N(O)C(C)C)cc2-c2ccc(C)cc2)cc1 [1-L] | 3800 | 64 | 1700 |
| COc1ccc(-n2nc(COC(=O)NO)c(Br)c2-c2ccc(C)cc2)cc1 [1-M] | 21500 | 85 | 1460 |
| COc1ccc(-n2nc(COC(=O)N(C)O)c(Br)c2-c2ccc(C)cc2)cc1 [1-N] | 3460 | 100 | 1140 |
| COc1ccc(-n2nc(COC(=O)N(O)C(C)C)c(Br)c2-c2ccc(C)cc2)cc1 [1-O] | 5120 | 82 | 3120 |
| COc1ccc(-n2nc(COC(=O)NO)c(Cl)c2-c2ccc(C)cc2)cc1 [1-P] | 17500 | 0 | 1090 |
| COc1ccc(-n2nc(COC(=O)N(O)C(C)C)c(Cl)c2-c2ccc(C)cc2)cc1 [1-R] | 2700 | 8 | 3800 |
| COc1ccc(-n2nc(CCOC(=O)N(O)C(C)C)cc2-c2ccc(Cl)cc2)cc1 [2-B] | 1980 | 55 | 500 |
| COc1ccc(-n2nc(CCOC(=O)N(C)O)c(Cl)c2-c2ccc(Cl)cc2)cc1 [2-C] | 4200 | 41 | 2720 |
| COc1ccc(-n2nc(CCOC(=O)N(O)C(C)C)c(Cl)c2-c2ccc(Cl)cc2)cc1 [2-D] | 2300 | 1.5 | 250 |
| COc1ccc(-n2nc(CCOC(=O)N(O)C(C)C)c(Cl)c2-c2ccc(C)cc2)cc1 [2-J] | 3100 | 42 | 480 |
| COc1ccc(-n2nc(CCOC(=O)NO)c(Br)c2-c2ccc(C)cc2)cc1 [2-K] | 18700 | 35 | 410 |
| COc1ccc(-n2nc(CCCOC(=O)NO)cc2-c2ccc(Cl)cc2)cc1 [3-A] | 30000 | 67 | 3000 |
| COc1ccc(-n2nc(CCCOC(=O)N(C)O)cc2-c2ccc(Cl)cc2)cc1 [3-B] | 3210 | 65 | 6340 |
| COc1ccc(-n2nc(CCCOC(=O)N(O)C(C)C)c(Cl)c2-c2ccc(Cl)cc2)cc1 [3-E] | 2800 | 52 | 17000 |
| COc1ccc(-n2nc(CCCOC(=O)N(C)O)c(Br)c2-c2ccc(Cl)cc2)cc1 [3-F] | 2350 | 100 | 6110 |

Continued, values first:

| IC50 [1] [nM] | % INHIBITION CO (Procedure II) [2] [%] | IC50 [2] [nM] | Structure (SMILES) |
| --- | --- | --- | --- |
| 1210 | 43 | 170 | COc1ccc(-n2nc(COC(=O)N(C)O)c(Br)c2-c2ccc(Cl)cc2)cc1 [1-E] |
| 1800 | 82 | 210 | COc1ccc(-n2nc(COC(=O)N(C)O)c(Cl)c2-c2ccc(C)cc2)cc1 [1-Q] |
| 1360 | 44 | 1950 | COc1ccc(-n2nc(CCOC(=O)N(C)O)cc2-c2ccc(Cl)cc2)cc1 [2-A] |
| 1100 | 5.5 | 2700 | COc1ccc(-n2nc(CCOC(=O)N(C)O)c(Br)c2-c2ccc(Cl)cc2)cc1 [2-E] |
| 1600 | 4 | 410 | COc1ccc(-n2nc(CCOC(=O)N(O)C(C)C)c(Br)c2-c2ccc(Cl)cc2)cc1 [2-F] |
| 920 | 100 | 400 | COc1ccc(-n2nc(CCOC(=O)N(C)O)cc2-c2ccc(C)cc2)cc1 [2-G] |
| 1480 | 100 | 40 | COc1ccc(-n2nc(CCOC(=O)N(O)C(C)C)cc2-c2ccc(C)cc2)cc1 [2-H] |
| 1080 | 52 | 2010 | COc1ccc(-n2nc(CCOC(=O)N(C)O)c(Cl)c2-c2ccc(C)cc2)cc1 [2-I] |
| 1200 | 39 | 830 | COc1ccc(-n2nc(CCOC(=O)N(C)O)c(Br)c2-c2ccc(C)cc2)cc1 [2-L] |
| 1970 | 72 | 1780 | COc1ccc(-n2nc(CCCOC(=O)N(O)C(C)C)cc2-c2ccc(Cl)cc2)cc1 [3-C] |
| 820 | 100 | 2250 | COc1ccc(-n2nc(CCCOC(=O)N(C)O)c(Cl)c2-c2ccc(Cl)cc2)cc1 [3-D] |
